The source of these data is ChEMBL document CHEMBL1201862, “PubChem BioAssay data set” (2004).

Among the test systems are 786-0; ACHN; BT-549; CAKI-1; CCRF-CEM; COLO 205; DU-145; EKVX; KM12; LOX IMVI; MCF7; NCI-H226; NCI-H23; NCI-H460; OVCAR-5; SF-268; SK-OV-3; T47D; UACC-257.
Holding throughout (test): growth of human tumour cells (NCI), 48 h

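Following 48 hours of exposure in 96-well plates, responses at five concentrations were used to interpolate endpoints linearly. GI50: concentration for 50% inhibition of growth.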 The source made the active and inactive calls. Rule as the data show it: active = GI50 up to about 1.1 µM and inactive = higher.

For `Cc1cccc2c1NC(=S)[C@@H]1CCCN1C2=O`, the GI50 with 786-0, in the experiment on ACHN, in the experiment on BT-549, in the experiment on CAKI-1, with CCRF-CEM and in the experiment with COLO 205 was > 100 µM (inactive) in each case. Also, the GI50 in the experiment on DU-145, with EKVX, in the experiment on KM12, in the experiment with LOX IMVI, in the experiment with MCF7 and in the experiment on NCI-H226 was > 100 µM (inactive) each time. Moreover, the GI50 in the experiment on NCI-H23, with NCI-H460, in the experiment on OVCAR-5, in the experiment with SF-268, in the experiment on SK-OV-3 and in the experiment on T47D was > 100 µM (inactive) throughout. In addition, in the experiment on UACC-257, the GI50 was > 100 µM (inactive).

For `O=c1[nH]c(=O)n(C2CC(O)C(CO)O2)cc1Oc1ccccc1` (centres undefined), the GI50 with 786-0, in the experiment with ACHN, with BT-549, in the experiment with CAKI-1, with CCRF-CEM and in the experiment with COLO 205 was > 100 µM (inactive) throughout. Also, the GI50 in the experiment with DU-145, in the experiment on EKVX, in the experiment on KM12, in the experiment with LOX IMVI, with MCF7 and in the experiment on NCI-H226 was > 100 µM (inactive) in each case. Moreover, the GI50 in the experiment with NCI-H23, in the experiment with NCI-H460, in the experiment with OVCAR-5, in the experiment with SF-268, in the experiment with SK-OV-3 and in the experiment with T47D was > 100 µM (inactive) each time. Besides, the GI50 in the experiment with UACC-257 is > 100 µM (inactive).

Consider `Oc1ccc(Cl)cc1-c1cc(-c2ccccc2)nc(NCN2CCCCC2)n1`, for which the GI50 with 786-0 is > 100 µM (inactive); in the experiment on ACHN, 24.2 µM (inactive); in the experiment on BT-549, > 100 µM (inactive); in the experiment on CAKI-1 it was 8.81 µM (inactive); in the experiment with COLO 205, > 100 µM (inactive); in the experiment with DU-145 it was > 100 µM (inactive). Also, the GI50 with EKVX is > 100 µM (inactive); in the experiment with KM12, 0.78 µM (active); in the experiment on LOX IMVI, > 100 µM (inactive); with MCF7 it was 2.78 µM (inactive); in the experiment with NCI-H226 it was 0.838 µM (active); with NCI-H23, 72.1 µM (inactive). Also, the GI50 in the experiment with NCI-H460 is > 100 µM (inactive); in the experiment on OVCAR-5 it was > 100 µM (inactive); in the experiment on SF-268, 7.14 µM (inactive); with SK-OV-3, > 100 µM (inactive); in the experiment on T47D, > 100 µM (inactive); in the experiment with UACC-257, > 100 µM (inactive).

In the case of `Cc1cccc(NC(=S)Nc2ccc(Cl)cc2)n1`, the GI50 with 786-0, in the experiment with ACHN, in the experiment with BT-549, in the experiment on CAKI-1, with CCRF-CEM and in the experiment on COLO 205 was > 100 µM (inactive) throughout. The GI50 with DU-145 is > 100 µM (inactive); with EKVX it was > 100 µM (inactive); in the experiment on KM12, 3.1 µM (inactive); with LOX IMVI, > 100 µM (inactive); in the experiment with MCF7, > 100 µM (inactive); in the experiment on NCI-H226 it was > 100 µM (inactive). In addition, the GI50 with NCI-H23, with NCI-H460, in the experiment on SF-268, in the experiment with SK-OV-3, with T47D and in the experiment on UACC-257 was > 100 µM (inactive) throughout.

As to `N=C(N)c1ccc(C(NC(=O)CNS(=O)(=O)c2ccc3ccccc3c2)P(=O)(Oc2ccccc2)Oc2ccccc2)cc1` (centres undefined), the GI50 was 36.8 µM (inactive) with 786-0; > 100 µM (inactive) in the experiment on ACHN; 19.2 µM (inactive) with BT-549; 67.5 µM (inactive) in the experiment on CAKI-1; 29.8 µM (inactive) with CCRF-CEM; > 100 µM (inactive) in the experiment on COLO 205. For the same compound, the GI50 with DU-145 is > 100 µM (inactive); in the experiment with KM12, 47.4 µM (inactive); in the experiment on LOX IMVI, 28.1 µM (inactive); in the experiment with MCF7, 54 µM (inactive); in the experiment on NCI-H226, 17.7 µM (inactive); in the experiment with NCI-H23 it was > 100 µM (inactive). In addition, the GI50 with NCI-H460 is > 100 µM (inactive); in the experiment with OVCAR-5 it was 32.6 µM (inactive); in the experiment with SF-268, 29.8 µM (inactive); in the experiment on SK-OV-3 it was 61.9 µM (inactive); in the experiment with T47D, 65.3 µM (inactive); with UACC-257 it was > 100 µM (inactive).

In the case of `CN(C)c1c(Cl)c(=O)oc2c1ccc1nc(-c3ccccc3)sc12`, the GI50 in the experiment on 786-0, in the experiment with ACHN, in the experiment with BT-549, with CAKI-1, in the experiment on CCRF-CEM and with COLO 205 was > 100 µM (inactive) in each case. The GI50 was > 100 µM (inactive) in the experiment on DU-145; > 100 µM (inactive) with EKVX; > 100 µM (inactive) with KM12; > 100 µM (inactive) with LOX IMVI; 57.7 µM (inactive) in the experiment with MCF7; > 100 µM (inactive) in the experiment with NCI-H226. Moreover, the GI50 in the experiment on NCI-H23, in the experiment with NCI-H460, in the experiment with OVCAR-5, with SF-268, in the experiment on T47D and in the experiment with UACC-257 was > 100 µM (inactive) in each case.

Regarding `Cn1c(N)cc(=O)nc1N`, the GI50 in the experiment on 786-0, in the experiment on ACHN, in the experiment with BT-549, in the experiment on CAKI-1, with CCRF-CEM and in the experiment with COLO 205 was > 100 µM (inactive) in each case. For the same compound, the GI50 in the experiment on DU-145, in the experiment on EKVX, with KM12, in the experiment on LOX IMVI, in the experiment on MCF7 and with NCI-H226 was > 100 µM (inactive) in each case. Moreover, the GI50 with NCI-H23, with NCI-H460, in the experiment with OVCAR-5, with SF-268, in the experiment on SK-OV-3 and in the experiment with T47D was > 100 µM (inactive) throughout.

For the compound `C=C(Cl)CN1c2ccccc2C=Cc2ccccc21`, the GI50 with 786-0 is 14.2 µM (inactive); in the experiment with ACHN it was 7.05 µM (inactive); in the experiment with BT-549, 46 µM (inactive); in the experiment with CAKI-1, 10 µM (inactive); with COLO 205, 12.8 µM (inactive); in the experiment with DU-145, 29.7 µM (inactive). For the same compound, the GI50 was 19.1 µM (inactive) in the experiment on EKVX; 11 µM (inactive) with KM12; 11 µM (inactive) in the experiment with LOX IMVI; 15.2 µM (inactive) in the experiment with MCF7; 27.5 µM (inactive) in the experiment on NCI-H226; > 100 µM (inactive) in the experiment on NCI-H23. Also, the GI50 in the experiment with NCI-H460 is 3.61 µM (inactive); in the experiment with OVCAR-5 it was 19.9 µM (inactive); with SF-268, 15.7 µM (inactive); in the experiment with SK-OV-3 it was 15.9 µM (inactive); in the experiment on T47D it was 16.9 µM (inactive); in the experiment on UACC-257 it was 16.3 µM (inactive).

For `COc1cc(-c2ccccc2)cn2c1nc1ccccc12`, the GI50 with 786-0 is 15.7 µM (inactive); in the experiment on ACHN, 20 µM (inactive); in the experiment with BT-549, 17.8 µM (inactive); in the experiment with CAKI-1 it was 19.6 µM (inactive); in the experiment on CCRF-CEM, 25.5 µM (inactive); with COLO 205, 19.2 µM (inactive). For the same compound, the GI50 in the experiment with DU-145 is 25.6 µM (inactive); with KM12, 17.9 µM (inactive); in the experiment with LOX IMVI, 22.3 µM (inactive); in the experiment with MCF7 it was 17.1 µM (inactive); in the experiment with NCI-H226 it was 17.5 µM (inactive); with NCI-H23, 35 µM (inactive). Further, the GI50 in the experiment with NCI-H460 was 21.2 µM (inactive); in the experiment with OVCAR-5, 15 µM (inactive); in the experiment with SF-268, 26.1 µM (inactive); in the experiment with SK-OV-3, 23.9 µM (inactive); with T47D, 20.7 µM (inactive); in the experiment with UACC-257 it was 22.7 µM (inactive).

Consider `C[N+]1(C)CCc2cc(O)c(O)cc2C1Cc1ccc(O)c(O)c1` (centres undefined), for which the GI50 was 40.6 µM (inactive) in the experiment with 786-0; 35.3 µM (inactive) in the experiment with ACHN; > 100 µM (inactive) with BT-549; 50.9 µM (inactive) with CAKI-1; > 100 µM (inactive) with COLO 205; > 100 µM (inactive) in the experiment with DU-145. The GI50 was > 100 µM (inactive) with EKVX; > 100 µM (inactive) in the experiment with KM12; 27.7 µM (inactive) with LOX IMVI; 19.8 µM (inactive) in the experiment with MCF7; 39.2 µM (inactive) in the experiment with NCI-H226; > 100 µM (inactive) in the experiment with NCI-H23. For the same compound, the GI50 with NCI-H460 is 63.7 µM (inactive); with OVCAR-5, > 100 µM (inactive); in the experiment on SF-268, 39.6 µM (inactive); in the experiment with SK-OV-3, > 100 µM (inactive); with T47D, 23 µM (inactive); in the experiment with UACC-257 it was 31.2 µM (inactive).

Take `Cn1c(=O)c2[nH]c(N=O)nc2n(C)c1=O`: the GI50 in the experiment on 786-0, with BT-549, in the experiment on CAKI-1, in the experiment with COLO 205, in the experiment on DU-145 and with EKVX was > 100 µM (inactive) in each case. For the same compound, the GI50 in the experiment on KM12, in the experiment with LOX IMVI, in the experiment on MCF7, in the experiment on NCI-H226, with NCI-H23 and with NCI-H460 was > 100 µM (inactive) throughout. For the same compound, the GI50 in the experiment with OVCAR-5, with SF-268, with SK-OV-3, in the experiment with T47D and in the experiment with UACC-257 was > 100 µM (inactive) in each case.
